The results in this text go back to US10100019B2.

Each structure is given as a SMILES string. Read-outs that look alike come from different tables or passages of the source. Where only a bound is given, the exact number is not on record here.

In data set [1] the test system is H2228 cells. The conditions noted are these: human, 3 days.
Data set [2] deals with H2228 cells. Nature of the data set: cells. The conditions noted are these: Homo sapiens, NCI-H2228, 72 h, read-out: Cytotoxicity H2228 (GI50 μM), H2228 cells, three days, SRB.
Data set [3] relates to H3122 cells. Nature of the data set: Cytotoxicity in non-small cell lung cancer cell line H3122 (SRB). Type of data set: cell-based, human. The conditions noted are these: H3122 cells, three days, SRB. The procedure: Particularly, 4,000 H3122 cells containing ALK enzyme were distributed in each well of a 96 well plate together with 100 μl of DMEM (Dulbecco's Modified Eagle's Medium). One day later, the compound of the present invention was added to each well at different concentrations of […]. DMSO (dimethylsulfoxide) was added to the well that was not loaded with the compound by the same amount as the compound. Three days after the addition of the compound, DMEM was eliminated. 10% TCA (trichloroacetic acid) was added to fix the cells. The wells were washed with running water three times and the live cells were stained with SRB solution (1 sulphorodamine B). Then, OD was measured to calculate the population of the live cells.

Data set [4] concerns Ba/F3 EML4-ALK WT cells. As to the kind of experiment: cells. It counts as cell-based, rodent. The conditions noted are these: read-out: Ba/F3 EML-ALK WT (IC50 μM).
Data set [5] deals with ALK WT (Homo sapiens (Human), UniProt Q9UM73). To be noted: read-out: ALK WT (IC50 μM); ALK enzyme, HTRF. (In general: TR-FRET usually uses a lanthanide donor and a delayed reading to cut background.)
Experimental: To measure the activity to inhibit ALK, each of the compounds prepared in examples listed in table 2 (2 μl) was loaded in a 384 well plate. Then, each of the compounds was mixed with anaplastic lymphoma kinase (ALK) enzyme (1 μl) and biotin conjugated peptide substrate (2 μl), followed by culture for 15 minutes. ATP solution (5 μl) was added thereto, followed by kinase reaction at room temperature for 30 minutes. […] Upon completion of the reaction, one hour culture was performed, followed by analysis using homogeneous time-resolved fluorescence (HTRF, Cisbio).
The subject of data set [6] is H3122 induced lung cancer. Nature of the data set: In vivo xenograft evaluation for H3122 induced lung cancer. To be noted: H3122 xenograft in nude mice, orally administered q.d.×14, FIG. 1. Also noted: species or system nude mice (BALB/c nu/nu). An excerpt: The nude mice (BALB/c nu/nu, female) used in this experiment were purchased from Charles River Japan, Inc. and raised and tested under SPF (Specific Pathogen Free) control. The human non-small cell lung cancer cell line H3122 maintained by Korea Research Institute of Chemical Technology was used in this experiment.
The female nude mice adapted to the laboratory were implanted with cancer. Particularly, H3122 cells grown to the appropriate size for passage were cut into 3×3×3 mm^3, which was transplanted (s.c.) under the right side of the nude mouse. When the size of the implanted cancer reached about 200 mm^3, administration of the compound of example 58 was started; this was the first day (day 1). For the control, 20% PEG 400+3% Tween 80 in DDW was orally administered. For the experimental group (7 mice/group), the compound was dissolved in the same solvent of the control, which was orally administered 14 times in total (q.d.×14). The size of the cancer was measured every 2-3 days after the administration using a caliper and the diameters (long diameter (a), short diameter (b)) of the cancer were measured. The size of the cancer (volume, V) was calculated according to mathematical formula 1. Volume (mm^3)=a×b^2/2 Mathematical Formula 1
(In the mathematical formula 1,
a represents the horizontal length of the cancer; and
b represents the vertical short length of the cancer).

Chain of ALK WT (Q9UM73 19-1620): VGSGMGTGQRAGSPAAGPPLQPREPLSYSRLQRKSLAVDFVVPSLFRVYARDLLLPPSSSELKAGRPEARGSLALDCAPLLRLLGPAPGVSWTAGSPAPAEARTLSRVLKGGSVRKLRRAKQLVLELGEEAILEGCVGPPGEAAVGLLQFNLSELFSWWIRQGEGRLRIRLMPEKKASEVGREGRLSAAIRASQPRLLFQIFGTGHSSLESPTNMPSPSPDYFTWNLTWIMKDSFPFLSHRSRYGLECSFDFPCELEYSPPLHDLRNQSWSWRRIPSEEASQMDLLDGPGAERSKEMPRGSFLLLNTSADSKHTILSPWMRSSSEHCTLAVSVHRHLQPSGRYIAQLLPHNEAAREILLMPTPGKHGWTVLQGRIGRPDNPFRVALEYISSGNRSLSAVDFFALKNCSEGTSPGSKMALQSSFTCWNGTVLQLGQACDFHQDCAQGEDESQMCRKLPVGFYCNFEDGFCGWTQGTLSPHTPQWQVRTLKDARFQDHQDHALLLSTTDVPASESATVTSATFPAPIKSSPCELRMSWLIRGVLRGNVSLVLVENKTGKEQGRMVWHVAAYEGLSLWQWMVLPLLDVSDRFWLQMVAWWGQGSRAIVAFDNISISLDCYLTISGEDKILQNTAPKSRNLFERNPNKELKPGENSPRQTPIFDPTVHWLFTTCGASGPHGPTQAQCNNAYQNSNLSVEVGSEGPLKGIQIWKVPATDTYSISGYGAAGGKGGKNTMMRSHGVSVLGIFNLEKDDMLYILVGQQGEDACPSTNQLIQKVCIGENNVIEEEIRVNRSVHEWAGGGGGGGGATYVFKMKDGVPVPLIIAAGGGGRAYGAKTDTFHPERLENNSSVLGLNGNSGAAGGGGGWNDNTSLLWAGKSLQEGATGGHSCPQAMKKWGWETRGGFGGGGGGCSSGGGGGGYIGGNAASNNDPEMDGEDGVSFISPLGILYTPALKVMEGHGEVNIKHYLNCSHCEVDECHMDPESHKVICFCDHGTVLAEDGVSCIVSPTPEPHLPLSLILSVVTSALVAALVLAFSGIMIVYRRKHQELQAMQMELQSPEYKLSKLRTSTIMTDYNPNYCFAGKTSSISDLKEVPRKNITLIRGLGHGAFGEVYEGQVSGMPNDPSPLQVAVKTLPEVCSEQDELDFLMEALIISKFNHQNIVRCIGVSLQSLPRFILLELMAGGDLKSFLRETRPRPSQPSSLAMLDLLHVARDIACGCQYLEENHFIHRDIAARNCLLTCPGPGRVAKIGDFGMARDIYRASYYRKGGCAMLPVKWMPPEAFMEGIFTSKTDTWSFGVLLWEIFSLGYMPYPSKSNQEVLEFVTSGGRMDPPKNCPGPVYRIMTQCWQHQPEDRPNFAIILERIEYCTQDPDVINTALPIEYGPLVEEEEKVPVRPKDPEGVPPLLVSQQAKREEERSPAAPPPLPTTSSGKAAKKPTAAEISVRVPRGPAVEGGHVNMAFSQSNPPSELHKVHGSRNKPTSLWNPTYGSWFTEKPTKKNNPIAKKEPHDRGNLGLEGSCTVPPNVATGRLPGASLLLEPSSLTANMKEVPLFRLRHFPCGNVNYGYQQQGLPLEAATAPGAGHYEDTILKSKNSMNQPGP

Turning to `COC(=O)CCNCCc1ccc(OC)c(Nc2ncc(Cl)c(Nc3ccccc3S(=O)(=O)C(C)C)n2)c1` [Example 24, methyl 3-(3-(5-chloro-4-(2-(isopropylsulfonyl)phenylamino)pyrimidine-2-ylamino)-4-methoxyphenethylamino)propanoate], the GI50 in data set [1] is 660 nM; in data set [2] it was not above 1 µM; in data set [3], 0.09 µM; in data set [3] (Homo sapiens, NCI-H3122, 72 h), not above 0.1 µM.
Consider `COc1cc(CC#N)c(C)cc1Nc1ncc(Cl)c(Nc2ccccc2S(=O)(=O)C(C)C)n1` [Example 53, 2-(4-((5-chloro-4-((2-(isopropylsulfonyl)phenyl)amino)pyrimidine-2-yl)amino)-5-methoxy-2-methylphenyl)acetonitrile], for which the IC50 is not above 0.1 µM in data set [4] (Ba/F3 EML4-ALK) and 0.061 µM in data set [4]. For the same compound, halving of growth in data set [3] (Homo sapiens, NCI-H3122, 72 h) (GI50) required 0.074 µM.
For `COc1cc(C(C)(C)C#N)c(C)cc1Nc1ncc(Cl)c(Nc2ccccc2S(=O)(=O)C(C)C)n1` [Example 54, 2-(4-((5-chloro-4-((2-(isopropylsulfonyl)phenyl)amino)pyrimidine-2-yl)amino)-5-methoxy-2-methylphenyl)-2-methylpropanenitrile], the IC50 in data set [4] (Ba/F3 EML4-ALK) was 0.25 µM. This compound also had a GI50 in data set [3] (Homo sapiens, NCI-H3122, 72 h) of 0.25 µM.
As to `COc1cc(CCN)c(C)cc1Nc1ncc(Cl)c(Nc2ccccc2S(=O)(=O)C(C)C)n1` [Example 55, N2-(4-(2-aminoethyl)-2-methoxy-5-methylphenyl)-5-chloro-N4-(2-(isopropylsulfonyl)phenyl)pyrimidine-2,4-diamine], the IC50 in data set [5] is 0.0027 µM. Moreover, in data set [3] (Homo sapiens, NCI-H3122, 72 h), the GI50 was 0.06 µM.
Regarding `COc1cc(C(C)(C)CN)c(C)cc1Nc1ncc(Cl)c(Nc2ccccc2S(=O)(=O)C(C)C)n1` [Example 56, N2-(4-(1-amino-2-methylpropane-2-yl)-2-methoxy-5-methylphenyl)-5-chloro-N4-(2-(isopropylsulfonyl)phenyl)pyrimidine-2,4-diamine], the IC50 in data set [5] worked out at 0.0049 µM. Further, halving of growth in data set [3] (Homo sapiens, NCI-H3122, 72 h) (GI50) required 0.053 µM.
Turning to `COc1cc(CCN(C)C)c(C)cc1Nc1ncc(Cl)c(Nc2ccccc2S(=O)(=O)C(C)C)n1` [Example 58, 5-chloro-N2-(4-(2-(dimethylamino)ethyl)-2-methoxy-5-methylphenyl)-N4-(2-(isopropylsulfonyl)phenyl)pyrimidine-2,4-diamine], the IC50 is 0.0014 µM in data set [5] and 0.01 µM in data set [4] (Ba/F3 EML4-ALK). For the same compound, the “size of the cancer (volume)” value in data set [6] is on record as “the effect of inhibiting cancer size was excellent, similar to LDK378”. Further, growth in data set [3] (Homo sapiens, NCI-H3122, 72 h) was halved (GI50) at 0.013 µM.
With `COc1cc(C(C)(C)CNC=O)c(C)cc1Nc1ncc(Cl)c(Nc2ccccc2S(=O)(=O)C(C)C)n1` [Example 59, N-(2-(4-((5-chloro-4-((2-(isopropylsulfonyl)phenyl)amino)pyrimidine-2-yl)amino)-5-methoxy-2-methylphenyl)-2-methylpropyl)formamide], the IC50 in data set [5] was found to be 0.0078 µM. Also, growth in data set [3] (Homo sapiens, NCI-H3122, 72 h) was halved (GI50) at 0.063 µM.
As for `CNCC(C)(C)c1cc(OC)c(Nc2ncc(Cl)c(Nc3ccccc3S(=O)(=O)C(C)C)n2)cc1C` [Example 60, 5-chloro-N4-(2-(isopropylsulfonyl)phenyl)-N2-(2-methoxy-5-methyl-4-(2-methyl-1-(methylamino)propane-2-yl)phenyl)pyrimidine-2,4-diamine], the IC50 in data set [5] is 0.0015 µM; in data set [4] (Ba/F3 EML4-ALK), 0.019 µM. In data set [3] (Homo sapiens, NCI-H3122, 72 h), this compound registered a GI50 of 0.041 µM.
As for `COc1cc(C(C)(C)NC=O)c(C)cc1Nc1ncc(Cl)c(Nc2ccccc2S(=O)(=O)C(C)C)n1` [Example 61, N-(2-(4-((5-chloro-4-((2-(isopropylsulfonyl)phenyl)amino)pyrimidine-2-yl)amino)-5-methoxy-2-methylphenyl)propane-2-yl)formamide], the IC50 in data set [4] (Ba/F3 EML4-ALK) amounted to 0.024 µM. The same compound displayed a GI50 in data set [3] (Homo sapiens, NCI-H3122, 72 h) of 0.052 µM.
For the compound `COc1cc(CCNC=O)c(C)cc1Nc1ncc(Cl)c(Nc2ccccc2S(=O)(=O)C(C)C)n1` [Example 62, N-(4-((5-chloro-4-((2-(isopropylsulfonyl)phenyl)amino)pyrimidine-2-yl)amino)-5-methoxy-2-methylphenethyl)formamide], the IC50 in data set [5] came out at 0.004 µM. This compound came in with a GI50 in data set [3] (Homo sapiens, NCI-H3122, 72 h) of 0.068 µM.
Turning to `CNCCc1cc(OC)c(Nc2ncc(Cl)c(Nc3ccccc3S(=O)(=O)C(C)C)n2)cc1C` [Example 63, 5-chloro-N4-(2-(isopropylsulfonyl)phenyl)-N2-(2-methoxy-5-methyl-4-(2-(methylamino)ethyl)phenyl)pyrimidine-2,4-diamine], the IC50 in data set [5] was found to be 0.0015 µM. Also, in data set [3] (Homo sapiens, NCI-H3122, 72 h), the GI50 was 0.02 µM.
Consider `CNC(C)(C)c1cc(OC)c(Nc2ncc(Cl)c(Nc3ccccc3S(=O)(=O)C(C)C)n2)cc1C` [Example 64, 5-chloro-N4-(2-(isopropylsulfonyl)phenyl)-N2-(2-methoxy-5-methyl-4-(2-(methylamino)propane-2-yl)phenyl)pyrimidine-2,4-diamine], for which the values for the IC50 in data set [5] and in data set [4] (Ba/F3 EML4-ALK) were 0.0012 µM and 0.015 µM, respectively. For the same compound, the 50% growth inhibitory concentration (GI50) in data set [3] (Homo sapiens, NCI-H3122, 72 h) was 0.029 µM.
As to `COc1cc(C(C)(C)CN(C)C)c(C)cc1Nc1ncc(Cl)c(Nc2ccccc2S(=O)(=O)C(C)C)n1` [Example 65, 5-chloro-N2-(4-(1-(dimethylamino)-2-methylpropane-2-yl)-2-methoxy-5-methylphenyl)-N4-(2-(isopropylsulfonyl)phenyl)pyrimidine-2,4-diamine], the IC50 in data set [5] stood at 0.0022 µM; in data set [4] (Ba/F3 EML4-ALK), 0.014 µM. In addition, the GI50 in data set [3] (Homo sapiens, NCI-H3122, 72 h) turned out to be 0.026 µM.
Consider `COc1cc(C(C)(C)N(C)C)c(C)cc1Nc1ncc(Cl)c(Nc2ccccc2S(=O)(=O)C(C)C)n1` [Example 66, 5-chloro-N2-(4-(2-(dimethylamino)propane-2-yl)-2-methoxy-5-methylphenyl)-N4-(2-(isopropylsulfonyl)phenyl)pyrimidine-2,4-diamine], for which, in data set [5], the IC50 came to 0.0028 µM. The GI50 in data set [3] (Homo sapiens, NCI-H3122, 72 h) is 0.035 µM.
As to `COc1cc(-c2ccccc2)c(CCN)cc1Nc1ncc(Cl)c(Nc2ccccc2S(=O)(=O)C(C)C)n1` [Example 67], the IC50 in data set [4] (Ba/F3 EML4-ALK) was found to be 0.11 µM. It took 0.23 µM to inhibit growth in data set [3] (Homo sapiens, NCI-H3122, 72 h) by half (GI50).
On to `COc1cc(CN(C)C)c(C)cc1Nc1ncc(Cl)c(Nc2ccccc2S(=O)(=O)C(C)C)n1` [Example 70, 5-chloro-N2-(4-((dimethylamino)methyl)-2-methoxy-5-methylphenyl)-N4-(2-(isopropylsulfonyl)phenyl)pyrimidine-2,4-diamine], for which, in data set [4] (Ba/F3 EML4-ALK), the IC50 is 0.021 µM. Besides, the GI50 in data set [3] (Homo sapiens, NCI-H3122, 72 h) was determined as 0.037 µM.
In the case of `COc1cc(CNC=O)c(C)cc1Nc1ncc(Cl)c(Nc2ccccc2S(=O)(=O)C(C)C)n1` [Example 71, N-(4-((5-chloro-4-((2-(isopropylsulfonyl)phenyl)amino)pyrimidine-2-yl)amino)-5-methoxy-2-methylbenzyl)formamide], the IC50 in data set [4] (Ba/F3 EML4-ALK) is 0.015 µM.
As to `CNCc1cc(OC)c(Nc2ncc(Cl)c(Nc3ccccc3S(=O)(=O)C(C)C)n2)cc1C` [Example 72, 5-chloro-N4-(2-(isopropylsulfonyl)phenyl)-N2-(2-methoxy-5-methyl-4-((methylamino)methyl)phenyl)pyrimidine-2,4-diamine], the IC50 in data set [5] was 0.00174 µM; in data set [4] (Ba/F3 EML4-ALK) it was 0.015 µM. The same compound displayed a GI50 in data set [3] (Homo sapiens, NCI-H3122, 72 h) of 0.025 µM.
For `C=C(C)c1cc(OCC)c(Nc2ncc(Cl)c(Nc3ccccc3S(=O)(=O)C(C)C)n2)cc1CCN` [Example 74, N2-(5-(2-aminoethyl)-2-ethoxy-4-(prop-1-ene-2-yl)phenyl)-5-chloro-N4-(2-(isopropylsulfonyl)phenyl)pyrimidine-2,4-diamine], the IC50 in data set [4] (Ba/F3 EML4-ALK) came to 0.36 µM. Also, in data set [3] (Homo sapiens, NCI-H3122, 72 h), the GI50 stood at 0.77 µM.
Consider `C=C(C)c1cc(OC)c(Nc2ncc(Cl)c(Nc3ccccc3S(=O)(=O)C(C)C)n2)cc1CCN` [Example 75, N2-(5-(2-aminoethyl)-2-methoxy-4-(prop-1-ene-2-yl)phenyl)-5-chloro-N4-(2-(isopropylsulfonyl)phenyl)pyrimidine-2,4-diamine], for which the IC50 in data set [4] (Ba/F3 EML4-ALK) stood at 0.11 µM. Besides, the GI50 in data set [3] (Homo sapiens, NCI-H3122, 72 h) is 0.23 µM.
With `Cc1cc(Nc2ncc(Cl)c(Nc3ccccc3S(=O)(=O)C(C)C)n2)c(OC(C)C)cc1C1CCNCC1` [LDK378, Ceritinib, reference compound], the “size of the cancer (volume)” value in data set [6] is listed as “the effect of inhibiting cancer size was excellent, similar to LDK378”.

What is called GI50 is the concentration that inhibits growth by half.
